Starred links: 1 amine or outer side, 2 acyl side, 3 side chain; linkers in the order of their positions; H or OH if unused. Positions of bridges follow the written chain, without caps; N, C: chain ends. Non-standard residues stand in square brackets, D forms with d. Residues, ends and D or L forms follow the SMILES beside them. X1 = O=C(CC1(S[*:2])CCCCC1)[*:1]; Cha = N[C@@H](CC1CCCCC1)C(=O)O; Nle = CCCC[C@H](N)C(=O)O; Orn = NCCC[C@H](N)C(=O)O
Key:
[1] = test system: antidiuretic response to arginine vasopressin (ADH); assay: Anti-antidiuretic: antagonism of the antidiuretic response to subsequent injections of vasopressin; type: in vivo, rats; details: for Anti-Antidiuretic pA2: estimated in vivo pA2, volume of distribution 67 ml/kg
Description: Activity as antidiuretic agonists was determined by intravenous injection of the compounds being evaluated in ethanol-anesthesized water-loaded rats in accordance with Sawyer, Endocrinology, vol. 63 (1958) at 694. Antagonism of the response to subsequent injections of vasopressin was tested as described by Sawyer et al., Science, vol. 212 (1981) at 49.
(§1) Antagonistic potencies were determined and expressed as "effective doses" and pA2 values. The "effective dose" is defined as the dose (in nanomoles per kilogram) that reduces the response seen from 2x units of agonist injected 20 min after the dose of antagonist to the response with 1x units of agonist. Estimated in vivo "pA2 " values represent the negative logarithms of the effective doses, divided by the estimated volume of distribution (67 ml/kg).

[2] = test system: vasopressor response to arginine vasopressin; assay: Antivasopressor: antagonism to the vasopressor response (Dyckes et al.); type: in vivo; details: for Antivasopressor pA2: Table 1, estimated in vivo pA2; for Antagonistic Activities Antivasopressor pA2: table
Description: Antagonism to the vasopressor response was estimated in accordance with Dyckes et al., J. Med. Chem., vol. 17 (1974) at 969. The values are expressed as pA2 values, defined as in Schild et al., Br. J. Pharmacol., vol. 2 (1947) at 189.
as §1

Row | Compound | Anti-Antidiuretic pA2 ([1]; Table 1) | Antivasopressor pA2 [2] | Anti-Antidiuretic pA2 ([1]; Table 2) | also measured
1 | COc1ccc(C[C@@H]2NC(=O)CC3(CCCCC3)SSC[C@@H](C(=O)N3CCC[C@H]3C(=O)N[C@H](CCCNC(=N)N)C(=O)NCC(N)=O)NC(=O)[C@H](CC(N)=O)NC(=O)[C@H](C(C)C)NC(=O)[C@H](Cc3ccccc3)NC2=O)cc1 [d(CH2)5 Tyr(Me)VDAVP, [1-(β-mercapto-β,β-cyclopentamethylenepropionic acid), 2-O-methyltyrosine, 4-valine, 8-D-arginine]vasopressin] (Y(Me)FVNCP[dR]G-NH2; linker N-5 via X1) | 6.68 ± 0.11 | 8.44 ± 0.07 | – | –
2 | CCOc1ccc(C[C@@H]2NC(=O)CC3(CCCCC3)SSC[C@@H](C(=O)N3CCC[C@H]3C(=O)N[C@H](CCCNC(=N)N)C(=O)NCC(N)=O)NC(=O)[C@H](CC(N)=O)NC(=O)[C@H](C(C)C)NC(=O)[C@H](Cc3ccccc3)NC2=O)cc1 [d(CH2)5 Tyr(Et)VDAVP] (Y(Et)FVNCP[dR]G-NH2; linker N-5 via X1) | 7.10 ± 0.08 | 8.31 ± 0.05 | – | –
3 | COc1ccc(C[C@H]2NC(=O)CC3(CCCCC3)SSC[C@@H](C(=O)N3CCC[C@H]3C(=O)N[C@@H](CCCNC(=N)N)C(=O)NCC(N)=O)NC(=O)[C@H](CC(N)=O)NC(=O)[C@H](C(C)C)NC(=O)[C@H](Cc3ccccc3)NC2=O)cc1 [d(CH2)5 --D-Tyr(Me)VAVP] ([dY](Me)FVNCPRG-NH2; linker N-5 via X1) | 7.77 ± 0.07 | 8.48 ± 0.08 | – | –
4 | COc1ccc(C[C@@H]2NC(=O)CC3(CCCCC3)SSC[C@H](C(=O)N3CCC[C@H]3C(=O)N[C@@H](CCCNC(=N)N)C(=O)NCC(N)=O)NC(=O)[C@H](CC(N)=O)NC(=O)[C@H](CCC(N)=O)NC(=O)[C@H](Cc3ccccc3)NC2=O)cc1 [d(CH2)5 Tyr(Me)^2 D-Cys^6 AVP] (Y(Me)FQN[dC]PRG-NH2; linker N-5 via X1) | 5.5 | 7.87 ± 0.09 | – | –
5 | COc1ccc(C[C@H]2NC(=O)CC3(CCCCC3)SSC[C@@H](C(=O)N3CCC[C@H]3C(=O)N[C@@H](CCCNC(=N)N)C(=O)NCC(N)=O)NC(=O)[C@H](CC(N)=O)NC(=O)[C@H](CCC(N)=O)NC(=O)[C@H](Cc3ccccc3)NC2=O)cc1 [d(CH2)5 [D-Tyr(Me)^2]AVP, [1-(β-mercapto-β,β-cyclopentamethylenepropionic acid), 2-D-(O-methyl)tyrosine]-arginine vasopressin] ([dY](Me)FQNCPRG-NH2; linker N-5 via X1) | 6.98 ± 0.08 | 8.27 ± 0.02 | – | –
6 | N=C(N)NCCC[C@H](NC(=O)[C@@H]1CCCN1C(=O)[C@@H]1CSSC2(CCCCC2)CC(=O)N[C@H](Cc2ccccc2)C(=O)N[C@@H](Cc2ccccc2)C(=O)N[C@@H](Cc2ccccc2)C(=O)N[C@@H](CC(N)=O)C(=O)N1)C(=O)NCC(N)=O [d(CH2)5 D-Phe^2 Phe^4 AVP, [1-(β-mercapto-β,β-cyclopentamethylenepropionic acid), 2-D-phenylalanine, 4-phenylalanine]-arginine vasopressin] ([dF]FFNCPRG-NH2; linker N-5 via X1) | – | – | 6.07 | –
7 | CC(C)[C@@H]1NC(=O)[C@H](Cc2ccccc2)NC(=O)[C@@H](Cc2ccccc2)NC(=O)CC2(CCCCC2)SSC[C@@H](C(=O)N2CCC[C@H]2C(=O)N[C@@H](CCCNC(=N)N)C(=O)NCC(N)=O)NC(=O)[C@H](CC(N)=O)NC1=O [d(CH2)5 D-Phe^2 VAVP] ([dF]FVNCPRG-NH2; linker N-5 via X1) | – | – | 8.06 | –
8 | [1-(β-mercapto-β,β-cyclopentamethylenepropionic acid), 2-D-phenylalanine, 4-aminobutyric acid]-arginine vasopressin [d(CH 2)5 D-Phe^2 Abu^4 AVP] | – | – | 7.96 | Anti-Antidiuretic ED ([1]; Table 2, effective dose): 0.77 ± 0.12 nmol/kg; Antivasopressor Potency ED ([2]; Table 2, effective dose): 1.4 ± 0.3 nmol/kg; AD/VP ([2]; Table 2, ratio, values fit antivasopressor ED / anti-antidiuretic ED): 1.8
9 | COc1ccc(C[C@@H]2NC(=O)CC3(CCCCC3)SSC[C@@H](C(=O)N3CCC[C@H]3C(=O)N[C@@H](CCCNC(=N)N)C(=O)NCC(N)=O)NC(=O)[C@H](CC(N)=O)NC(=O)[C@H](CCC(N)=O)NC(=O)[C@H](Cc3ccccc3)NC2=O)cc1 [d(CH2)5 Tyr(Me)AVP, [1-(β-mercapto-β,β-cyclopentamethylenepropionic acid), 2-O-methyltyrosine]-arginine vasopressin, reference compound] (Y(Me)FQNCPRG-NH2; linker N-5 via X1) | – | 8.62 ± 0.03 | – | Antagonistic Activities Antivasopressor pA2 [2]: 8.62 ± 0.03
10 | CCCC[C@@H]1NC(=O)[C@H](Cc2ccccc2)NC(=O)[C@@H](Cc2ccccc2)NC(=O)CC2(CCCCC2)SSC[C@@H](C(=O)N2CCC[C@H]2C(=O)N[C@@H](CCCNC(=N)N)C(=O)NCC(N)=O)NC(=O)[C@H](CC(N)=O)NC1=O [d(CH2)5 D-Phe^2 Nle^4 AVP, [1-(β-mercapto-β,β-cyclopentamethylenepropionic acid), 2-D-phenylalanine, 4-norleucine]-arginine vasopressin] ([dF]F[Nle]NCPRG-NH2; linker N-5 via X1) | – | – | 7.12 | –
11 | N=C(N)NCCC[C@H](NC(=O)[C@@H]1CCCN1C(=O)[C@@H]1CSSC2(CCCCC2)CC(=O)N[C@H](Cc2ccccc2)C(=O)N[C@@H](Cc2ccccc2)C(=O)N[C@@H](CC2CCCCC2)C(=O)N[C@@H](CC(N)=O)C(=O)N1)C(=O)NCC(N)=O [d(CH2)5 D-Phe^2 Cha^4 AVP, [1-(β-mercapto-β,β-cyclopentamethylenepropionic acid), 2-D-phenylalanine, 4-cyclohexylalanine]-arginine vasopressin] ([dF]F[Cha]NCPRG-NH2; linker N-5 via X1) | – | – | 7.19 | –
12 | CCOc1ccc(C[C@@H]2NC(=O)CC3(CCCCC3)SSC[C@@H](C(=O)N3CCC[C@@H]3C(=O)N[C@@H](CCCNC(=N)N)C(=O)NCC(N)=O)NC(=O)[C@H](CC(N)=O)NC(=O)[C@H](C(C)C)NC(=O)[C@H](Cc3ccccc3)NC2=O)cc1 [d(CH2)5 Tyr(Et)^2 D-Pro^7 VAVP] (Y(Et)FVNC[dP]RG-NH2; linker N-5 via X1) | 6.32 ± 0.11 | 8.23 ± 0.13 | – | –
13 | CC[C@@H](C)[C@H]1NC(=O)CC2(CCCCC2)SSC[C@@H](C(=O)N2CCC[C@H]2C(=O)N[C@@H](CCCN)C(=O)NCC(N)=O)NC(=O)[C@H](CC(N)=O)NC(=O)[C@H](C(C)C)NC(=O)[C@H](Cc2ccccc2)NC1=O [d(CH2)5 D-Ile^2 Val^4 Orn^8 VP] ([dI]FVNCP[Orn]G-NH2; linker N-5 via X1) | – | – | 7.66 | –
14 | CCOc1ccc(C[C@@H]2NC(=O)CC3(CCCCC3)SSC[C@@H](C(=O)N3CCC[C@H]3C(=O)N[C@@H](CCCNC(=N)N)C(=O)NCC(N)=O)NC(=O)[C@H](CC(N)=O)NC(=O)[C@H](CCC(N)=O)NC(=O)[C@H](Cc3ccccc3)NC2=O)cc1 [d(CH2)5 Tyr(Et)AVP, reference compound] (Y(Et)FQNCPRG-NH2; linker N-5 via X1) | – | – | – | Antagonistic Activities Antivasopressor pA2 [2]: 8.47 ± 0.04
15 | C[C@@H](O)[C@@H]1NC(=O)[C@H](Cc2ccccc2)NC(=O)[C@@H](Cc2ccccc2)NC(=O)CC2(CCCCC2)SSC[C@@H](C(=O)N2CCC[C@H]2C(=O)N[C@@H](CCCNC(=N)N)C(=O)NCC(N)=O)NC(=O)[C@H](CC(N)=O)NC1=O [d(CH2)5 D-Phe^2 Thr^4 AVP, [1-(β-mercapto-β,β-cyclopentamethylenepropionic acid), 2-D-phenylalanine, 4-threonine]-arginine vasopressin] ([dF]FTNCPRG-NH2; linker N-5 via X1) | – | – | 7.62 | –

Source: patent publication US4551445A, “Derivatives of arginine vasopressin antagonists” (The Medical College of Ohio, priority 1983, dated 1985)
